Active and inactive are the calls of the source. The calls are words filed in the database; no cut-off is given here.
Columns and labels:
[1] = target: T1, 5-hydroxytryptamine receptor 1A (Homo sapiens, UniProt P08908); experiment: Displacement of [3H]WAY 100635 from human recombinant 5HT1A receptor expressed in CHO cells; format: cell-based
T1 sequence (P08908 whole entry): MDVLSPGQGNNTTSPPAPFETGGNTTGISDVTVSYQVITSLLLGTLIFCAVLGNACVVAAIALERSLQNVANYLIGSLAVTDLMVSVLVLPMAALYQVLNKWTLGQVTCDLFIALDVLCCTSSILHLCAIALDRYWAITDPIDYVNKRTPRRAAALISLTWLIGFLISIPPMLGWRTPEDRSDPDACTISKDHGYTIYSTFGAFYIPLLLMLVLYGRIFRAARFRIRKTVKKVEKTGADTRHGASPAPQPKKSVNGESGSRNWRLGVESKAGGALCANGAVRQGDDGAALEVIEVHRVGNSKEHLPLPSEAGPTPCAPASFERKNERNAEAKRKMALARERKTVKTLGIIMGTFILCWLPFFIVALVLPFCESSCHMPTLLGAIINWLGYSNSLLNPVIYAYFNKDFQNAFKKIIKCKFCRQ

[2] = target: T2, 5-hydroxytryptamine receptor 1D (Homo sapiens, UniProt P28221); experiment: Displacement of [3H]5-HT from human recombinant 5HT1D receptor expressed in CHO cells; format: cell-based
[3] = target: T3, Cytochrome P450 1A2 (Homo sapiens, UniProt P05177); experiment: Inhibition of CYP1A2; format: ADME
T3 sequence (P05177 whole entry): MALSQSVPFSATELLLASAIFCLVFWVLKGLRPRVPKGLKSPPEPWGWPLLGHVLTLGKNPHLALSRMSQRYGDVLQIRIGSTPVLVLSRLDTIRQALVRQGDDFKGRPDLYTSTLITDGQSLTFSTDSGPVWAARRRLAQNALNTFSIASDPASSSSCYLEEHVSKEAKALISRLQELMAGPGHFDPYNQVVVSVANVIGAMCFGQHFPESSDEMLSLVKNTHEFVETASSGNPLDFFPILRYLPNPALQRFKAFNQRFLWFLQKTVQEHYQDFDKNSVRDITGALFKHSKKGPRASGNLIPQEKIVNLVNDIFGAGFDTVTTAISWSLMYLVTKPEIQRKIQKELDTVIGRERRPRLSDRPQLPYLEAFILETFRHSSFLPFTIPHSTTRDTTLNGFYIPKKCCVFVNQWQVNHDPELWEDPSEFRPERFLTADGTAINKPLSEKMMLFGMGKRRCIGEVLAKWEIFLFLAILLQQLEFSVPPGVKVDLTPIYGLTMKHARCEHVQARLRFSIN

[4] = target: T4, 5-hydroxytryptamine receptor 1B (Homo sapiens, UniProt P28222); experiment: Displacement of [3H]5-HT from human recombinant 5HT1B receptor expressed in CHO cells; format: cell-based
[5] = target: Cytochrome P450 2C9 (Homo sapiens, UniProt P11712); experiment: Inhibition of CYP2C9; format: ADME
[6] = target: Sodium-dependent serotonin transporter (Rattus norvegicus, UniProt P31652)
Description: Inhibition of [3H]5-HT uptake at SERT in rat cortical synaptosomes

[7] = target: T4, 5-hydroxytryptamine receptor 1B; experiment: Intrinsic activity at human recombinant 5HT1B receptor expressed in CHO cells by [35S]GTP-gamma-S binding assay relative to 5-hydroxytryptamine; format: functional, cell-based
[8] = target: T2, 5-hydroxytryptamine receptor 1D; experiment: Intrinsic activity at human recombinant 5HT1D receptor expressed in CHO cells by [35S]GTP-gamma-S binding assay relative to 5-hydroxytryptamine; format: functional, cell-based
[9] = target: T5, 5-hydroxytryptamine receptor 1A (Homo sapiens) (UniProt P08908); experiment: Intrinsic activity at human recombinant 5HT1A receptor expressed in CHO cells by [35S]GTP-gamma-S binding assay relative to 5-hydroxytryptamine; format: functional, cell-based
T5 sequence (whole entry): T1 sequence (P08908 whole entry)

[10] = target: T1, 5-hydroxytryptamine receptor 1A; experiment: Displacement of [3H]-WAY100635 from human recombinant 5HT1A receptor expressed in CHO cells
[11] = tested on: Liver microsomes; experiment: Metabolic stability assessed as intrinsic clearance in human liver microsomes; format: ADME, Microsome
[12] = target: Histamine H2 receptor (Homo sapiens) (UniProt P25021); experiment: Inhibition of histamine H2 receptor at 1 uM
[13] = Volume of distribution at steady state in rat at 1 mg/kg, iv; format: ADME, organism-based; set-up: dose 1 mg/kg, route intravenous; conditions: in vivo, read-out: Vdss
[14] = tested on: Liver microsomes; experiment: Metabolic stability assessed as intrinsic clearance in rat liver microsomes; format: ADME, Microsome
[15] = Half life in rat at 1 mg/kg, iv; format: ADME, organism-based; set-up: dose 1 mg/kg, route intravenous; conditions: in vivo
[16] = target: T6, Muscarinic acetylcholine receptor M1 (Homo sapiens) (UniProt P11229); experiment: Inhibition of muscarinic M1 receptor at 1 uM
T6 sequence (whole entry): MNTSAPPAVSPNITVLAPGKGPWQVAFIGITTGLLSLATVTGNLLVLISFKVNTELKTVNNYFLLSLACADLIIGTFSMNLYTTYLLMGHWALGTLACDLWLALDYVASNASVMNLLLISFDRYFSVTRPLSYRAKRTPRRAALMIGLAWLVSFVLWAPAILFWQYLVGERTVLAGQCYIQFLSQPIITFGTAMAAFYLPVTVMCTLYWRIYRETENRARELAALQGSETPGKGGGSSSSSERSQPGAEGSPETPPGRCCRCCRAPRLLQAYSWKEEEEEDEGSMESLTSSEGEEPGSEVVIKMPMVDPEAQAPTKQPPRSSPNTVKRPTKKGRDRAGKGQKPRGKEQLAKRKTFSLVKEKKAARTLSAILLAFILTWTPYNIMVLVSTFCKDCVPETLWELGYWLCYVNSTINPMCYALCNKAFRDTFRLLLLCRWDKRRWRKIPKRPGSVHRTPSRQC

[17] = target: T7, Alpha-1A adrenergic receptor (Homo sapiens) (UniProt P35348); experiment: Inhibition of adrenergic alpha1 receptor at 1 uM
T7 sequence (whole entry): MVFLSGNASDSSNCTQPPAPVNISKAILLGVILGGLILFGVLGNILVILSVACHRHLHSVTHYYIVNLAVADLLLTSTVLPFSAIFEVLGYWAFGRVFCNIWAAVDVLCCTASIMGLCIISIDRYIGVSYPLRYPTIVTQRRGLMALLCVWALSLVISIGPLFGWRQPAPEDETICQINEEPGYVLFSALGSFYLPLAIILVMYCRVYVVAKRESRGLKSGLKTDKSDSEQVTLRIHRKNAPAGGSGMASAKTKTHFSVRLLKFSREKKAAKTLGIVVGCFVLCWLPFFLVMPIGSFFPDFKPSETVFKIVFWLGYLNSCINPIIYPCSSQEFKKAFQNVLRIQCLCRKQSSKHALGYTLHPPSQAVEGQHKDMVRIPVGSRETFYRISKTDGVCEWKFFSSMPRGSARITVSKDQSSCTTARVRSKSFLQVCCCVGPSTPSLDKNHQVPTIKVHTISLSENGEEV

[18] = Clearance in rat blood at 1 mg/kg, iv; format: ADME, organism-based; set-up: dose 1 mg/kg, route intravenous
[19] = Oral bioavailability in rat at 3 mg/kg; format: ADME, organism-based; conditions: in vivo
[20] = Ratio of drug level in brain to blood in rat at 3 mg/kg, po; format: ADME, organism-based; set-up: dose 3 mg/kg, route oral
[21] = target: Cytochrome P450 2C19 (Homo sapiens, UniProt P33261); experiment: Inhibition of CYP2C19; format: ADME
[22] = target: Cytochrome P450 2D6 (Homo sapiens, UniProt P10635); experiment: Inhibition of CYP2D6; format: ADME
[23] = target: Cytochrome P450 3A4 (Homo sapiens, UniProt P08684); experiment: Inhibition of CYP3A4; format: ADME
[24] = Selectivity for human recombinant 5HT1B receptor over rat cortical SERT
[25] = Selectivity for human recombinant 5HT1D receptor over rat cortical SERT
[26] = Selectivity for human recombinant 5HT1A receptor over rat cortical SERT

Sequence of Cytochrome P450 3A4 (P08684 whole entry): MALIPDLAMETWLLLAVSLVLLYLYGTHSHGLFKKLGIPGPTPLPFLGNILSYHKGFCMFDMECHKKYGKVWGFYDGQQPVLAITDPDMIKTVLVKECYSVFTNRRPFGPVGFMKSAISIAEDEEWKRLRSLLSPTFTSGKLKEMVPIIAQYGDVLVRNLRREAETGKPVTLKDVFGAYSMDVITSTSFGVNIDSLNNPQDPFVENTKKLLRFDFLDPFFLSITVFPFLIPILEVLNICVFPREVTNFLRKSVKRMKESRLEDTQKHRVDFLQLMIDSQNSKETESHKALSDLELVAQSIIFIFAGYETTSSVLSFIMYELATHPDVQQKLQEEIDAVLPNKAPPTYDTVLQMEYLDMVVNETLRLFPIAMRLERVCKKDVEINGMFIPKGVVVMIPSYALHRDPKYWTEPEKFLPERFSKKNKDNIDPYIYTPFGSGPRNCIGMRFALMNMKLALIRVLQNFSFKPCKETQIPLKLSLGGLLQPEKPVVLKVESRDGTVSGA
Sequence of Cytochrome P450 2C9 (P11712 whole entry): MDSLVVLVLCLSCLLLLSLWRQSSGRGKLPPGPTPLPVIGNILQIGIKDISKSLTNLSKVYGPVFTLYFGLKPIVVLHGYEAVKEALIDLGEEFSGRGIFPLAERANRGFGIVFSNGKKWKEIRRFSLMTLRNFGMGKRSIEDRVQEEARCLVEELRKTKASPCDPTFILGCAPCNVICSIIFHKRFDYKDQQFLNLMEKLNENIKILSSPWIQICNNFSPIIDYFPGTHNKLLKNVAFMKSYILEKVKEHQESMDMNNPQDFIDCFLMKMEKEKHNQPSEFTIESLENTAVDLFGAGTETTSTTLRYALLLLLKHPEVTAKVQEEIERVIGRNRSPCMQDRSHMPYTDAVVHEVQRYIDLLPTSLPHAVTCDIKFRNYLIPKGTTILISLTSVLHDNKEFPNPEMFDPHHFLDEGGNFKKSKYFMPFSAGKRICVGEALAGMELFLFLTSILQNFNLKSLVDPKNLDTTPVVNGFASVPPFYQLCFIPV
Sequence of Cytochrome P450 2D6 (P10635 whole entry): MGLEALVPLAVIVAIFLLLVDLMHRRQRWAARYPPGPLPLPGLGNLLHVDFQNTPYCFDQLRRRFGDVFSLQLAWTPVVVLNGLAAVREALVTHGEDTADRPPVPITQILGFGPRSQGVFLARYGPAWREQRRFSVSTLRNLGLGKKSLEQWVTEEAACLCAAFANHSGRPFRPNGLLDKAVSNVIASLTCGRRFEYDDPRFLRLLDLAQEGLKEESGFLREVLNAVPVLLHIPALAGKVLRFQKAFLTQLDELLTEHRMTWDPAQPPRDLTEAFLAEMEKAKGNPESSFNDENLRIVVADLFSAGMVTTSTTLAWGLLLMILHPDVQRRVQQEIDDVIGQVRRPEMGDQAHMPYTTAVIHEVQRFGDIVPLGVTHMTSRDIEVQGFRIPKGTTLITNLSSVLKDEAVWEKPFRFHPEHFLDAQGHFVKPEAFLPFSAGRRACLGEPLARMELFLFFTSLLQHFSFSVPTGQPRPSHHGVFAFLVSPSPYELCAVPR
T4 sequence (P28222 whole entry): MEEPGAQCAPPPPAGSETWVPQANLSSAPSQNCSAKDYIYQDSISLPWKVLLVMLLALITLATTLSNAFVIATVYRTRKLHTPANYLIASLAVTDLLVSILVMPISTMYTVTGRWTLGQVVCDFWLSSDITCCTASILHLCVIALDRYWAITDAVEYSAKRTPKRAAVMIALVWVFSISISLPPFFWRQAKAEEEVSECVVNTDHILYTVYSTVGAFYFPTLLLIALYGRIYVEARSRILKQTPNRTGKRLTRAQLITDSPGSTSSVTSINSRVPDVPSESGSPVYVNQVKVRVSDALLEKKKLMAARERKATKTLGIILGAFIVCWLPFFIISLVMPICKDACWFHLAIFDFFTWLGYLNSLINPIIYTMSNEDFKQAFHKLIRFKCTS
Sequence of Sodium-dependent serotonin transporter (P31652 whole entry): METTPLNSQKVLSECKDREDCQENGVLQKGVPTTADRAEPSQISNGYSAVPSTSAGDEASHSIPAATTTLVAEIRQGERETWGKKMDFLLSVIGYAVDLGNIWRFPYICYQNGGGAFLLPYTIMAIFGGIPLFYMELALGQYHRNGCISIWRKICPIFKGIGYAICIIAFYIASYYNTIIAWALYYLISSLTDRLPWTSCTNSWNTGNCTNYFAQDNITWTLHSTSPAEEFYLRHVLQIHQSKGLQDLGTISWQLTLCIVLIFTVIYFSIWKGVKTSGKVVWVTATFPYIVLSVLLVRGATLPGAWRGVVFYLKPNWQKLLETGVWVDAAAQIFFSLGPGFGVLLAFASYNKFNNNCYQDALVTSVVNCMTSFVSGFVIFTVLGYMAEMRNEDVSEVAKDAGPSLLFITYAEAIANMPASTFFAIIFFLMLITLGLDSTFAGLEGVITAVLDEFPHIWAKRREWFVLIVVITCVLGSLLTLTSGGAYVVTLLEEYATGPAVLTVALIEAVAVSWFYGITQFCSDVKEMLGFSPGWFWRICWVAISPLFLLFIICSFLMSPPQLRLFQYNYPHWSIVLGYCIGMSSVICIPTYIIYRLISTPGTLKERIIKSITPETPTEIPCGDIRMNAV
Sequence of Cytochrome P450 2C19 (P33261 whole entry): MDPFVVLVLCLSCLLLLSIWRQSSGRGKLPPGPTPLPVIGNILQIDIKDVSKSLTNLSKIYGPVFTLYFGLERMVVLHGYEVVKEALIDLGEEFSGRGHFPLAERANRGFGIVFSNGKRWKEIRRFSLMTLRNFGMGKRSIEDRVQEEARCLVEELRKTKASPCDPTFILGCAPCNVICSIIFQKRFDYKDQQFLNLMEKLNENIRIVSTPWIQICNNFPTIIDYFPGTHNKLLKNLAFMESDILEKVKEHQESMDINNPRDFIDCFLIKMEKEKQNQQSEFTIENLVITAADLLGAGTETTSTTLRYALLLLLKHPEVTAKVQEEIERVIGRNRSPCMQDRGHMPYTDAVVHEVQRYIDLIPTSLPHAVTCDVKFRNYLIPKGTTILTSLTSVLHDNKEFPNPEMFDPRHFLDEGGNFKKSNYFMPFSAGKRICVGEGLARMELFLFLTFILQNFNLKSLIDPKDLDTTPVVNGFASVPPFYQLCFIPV
T2 sequence (P28221 whole entry): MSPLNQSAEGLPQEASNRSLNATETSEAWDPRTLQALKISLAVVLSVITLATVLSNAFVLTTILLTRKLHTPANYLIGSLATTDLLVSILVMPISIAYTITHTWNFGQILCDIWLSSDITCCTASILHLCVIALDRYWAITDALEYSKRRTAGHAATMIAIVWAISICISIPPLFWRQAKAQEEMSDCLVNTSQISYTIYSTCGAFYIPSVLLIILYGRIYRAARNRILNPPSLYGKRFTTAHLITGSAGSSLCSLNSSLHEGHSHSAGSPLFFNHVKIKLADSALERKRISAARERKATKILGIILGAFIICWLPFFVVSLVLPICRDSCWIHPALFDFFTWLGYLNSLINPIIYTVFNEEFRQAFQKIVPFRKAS
Sequence of Histamine H2 receptor (Homo sapiens) (P25021 whole entry): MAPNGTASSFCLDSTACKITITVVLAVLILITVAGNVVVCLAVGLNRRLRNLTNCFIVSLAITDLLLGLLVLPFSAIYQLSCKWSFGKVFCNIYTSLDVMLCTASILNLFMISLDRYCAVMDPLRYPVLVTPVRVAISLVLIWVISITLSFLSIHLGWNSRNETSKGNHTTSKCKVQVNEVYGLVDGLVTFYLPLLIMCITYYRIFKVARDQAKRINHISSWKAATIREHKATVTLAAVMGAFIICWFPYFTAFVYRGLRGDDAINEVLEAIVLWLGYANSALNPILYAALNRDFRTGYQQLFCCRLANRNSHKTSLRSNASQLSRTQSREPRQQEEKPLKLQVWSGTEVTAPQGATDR

Ki [1] | Ki [2] | IC50 [3] | Ki [4] | IC50 [5] | Ki [6] | Intrinsic activity [7] | Intrinsic activity [8] | Intrinsic activity [9] | Ki [10] | half-life [15] | clearance [18] | IC50 [21] | IC50 [22] | IC50 [23] | Structure (SMILES) | further results
39.8 nM | 1 nM | 18 µM | 25.1 nM | 14 µM | 2000 nM | 0.4 | 0.3 | 0.1 | 1.26 nM |  |  |  |  |  | CCN1C(=O)COc2ccc(CN3CCN(CCOc4cccc5nc(C)ccc45)CC3)cc21 | 
6.31 nM | 2.51 nM |  | 6.31 nM |  | 39.8 nM | 0.5 |  | 0 | 0.398 nM | 78 min | 57 mL/min/kg |  |  |  | Cc1ccc2c(OCCN3CCC(Cc4ccc5c(c4)N(C)C(=O)CO5)CC3)cccc2n1 | CL [11]: 0.9 mL/min/g; Activity [12]: Active; Vd [13]: 4.2 L/kg; CL [14]: 4.9 mL/min/g; Activity [16]: Active; Activity [17]: Active; bioavailability [19]: 35%; Kp [20]: 1.3
25.1 nM | 2 nM |  | 31.6 nM | 18 µM | 158 nM | 0.4 | 0.5 | 0.1 | 0.251 nM |  |  |  |  |  | CCCN1C(=O)COc2ccc(CN3CCN(CCOc4cccc5nc(C)ccc45)CC3)cc21 | 
5.01 nM | 3.98 nM |  | 39.8 nM |  | 100 nM | 0.6 |  | 0 | 0.631 nM |  |  |  |  |  | Cc1ccc2c(OCCN3CCC(Cc4ccc5c(c4)N(C(C)C)C(=O)CO5)CC3)cccc2n1 | 
 | 2.51 nM |  | 31.6 nM |  | 1580 nM |  |  |  | 2 nM |  |  |  |  |  | Cc1ccc2c(OCCN3CCN(Cc4ccc5c(c4)N(CC(C)C)C(=O)CO5)CC3)cccc2n1 | 
 |  |  |  |  |  | 0.3 | 0.8 |  |  |  |  |  |  |  | COc1ccc(NC(=O)c2ccc(-c3ccc(-c4noc(C)n4)cc3C)cc2)cc1N1CCN(C)CC1 | 
2.51 nM | 1.26 nM | > 9 µM | 1.58 nM | > 9 µM | 200 nM | 0.5 | 0.7 | 0.1 |  | 168 min | 23 mL/min/kg | > 9 µM | > 9 µM | > 9 µM | CCN1C(=O)COc2ccc(CN3CCN(CCOc4cccc5nc(C)ccc45)CC3)c(F)c21 | bioavailability [19]: 34%; Kp [20]: 1.2
 | 3.16 nM | 4 µM | 31.6 nM | 12 µM | 158 nM |  |  |  | 1.26 nM |  |  | 16 µM |  |  | CCCCN1C(=O)COc2ccc(CN3CCN(CCOc4cccc5nc(C)ccc45)CC3)cc21 | 
63.1 nM | 10 nM |  | 100 nM |  | 25.1 nM | 0.6 |  | 0 | 1.58 nM |  |  |  |  |  | Cc1ccc2c(OCCN3CCN(Cc4ccc5c(c4)NC(=O)CO5)CC3)cccc2n1 | 
10 nM | 0.501 nM | > 20 µM | 7.94 nM | > 20 µM | 100 nM | 0.8 |  | 0 | 1.58 nM |  |  | > 20 µM | > 20 µM | > 20 µM | Cc1ccc2c(OCCN3CCN(Cc4ccc5c(c4)N(C)C(=O)CO5)CC3)cccc2n1 | 
 |  |  |  |  |  | 0.5 | 0.5 | 0.1 |  | 78 min | 50 mL/min/kg |  |  |  | Cc1ccc2c(OCCN3CCC(Cc4ccc5c(c4)NC(=O)CO5)CC3)cccc2n1 | CL [11]: 1.2 mL/min/g; Vd [13]: 4.4 L/kg; CL [14]: 3.4 mL/min/g; bioavailability [19]: 40%
 | 6.31 nM | 11 µM | 63.1 nM | 7 µM | 316 nM |  |  |  | 3.98 nM |  |  | 11 µM | 15 µM | 12 µM | Cc1ccc2c(OCCN3CCN(Cc4ccc5c(c4)N(Cc4ccccc4)C(=O)CO5)CC3)cccc2n1 | 
3.16 nM | 0.501 nM | > 16 µM | 1.58 nM | > 16 µM | 79.4 nM | 0.4 | 0.6 | 0 |  | 120 min | 34 mL/min/kg | > 16 µM | > 16 µM | > 16 µM | Cc1ccc2c(OCCN3CCN(Cc4ccc5c(c4F)N(C)C(=O)CO5)CC3)cccc2n1 | bioavailability [19]: 65%; Kp [20]: 2.7
3.16 nM | 1.58 nM |  | 3.98 nM |  | 126 nM | 0.4 | 0.6 | 0.1 | 0.251 nM | 96 min | 31 mL/min/kg |  |  |  | CCN1C(=O)COc2ccc(CC3CCN(CCOc4cccc5nc(C)ccc45)CC3)cc21 | CL [11]: 2.8 mL/min/g; Vd [13]: 2.5 L/kg; Ratio pKi [24]: 30; CL [14]: 7.7 mL/min/g; Ratio pKi [25]: 30; Ratio pKi [26]: 30
7.94 nM | 0.398 nM | > 19 µM | 0.2 nM | > 19 µM | 50.1 nM | 0.7 | 0.6 | 0 |  | 78 min | 14 mL/min/kg | > 19 µM | > 19 µM | > 19 µM | Cc1ccc2c(OCCN3CCN(Cc4cc(F)c5c(c4)N(C)C(=O)CO5)CC3)cccc2n1 | Kp [20]: 3.6
31.6 nM | 2 nM | 17 µM | 25.1 nM | 4 µM |  |  |  |  | 1.26 nM |  |  | 5 µM | 14 µM | 9 µM | Cc1ccc2c(OCCN3CCN(Cc4ccc5c(c4)N(CCc4ccccc4)C(=O)CO5)CC3)cccc2n1 | 
